From patent US20240376286A1, “DIHYDROXY COMPOUND MANUFACTURING METHOD AND RECYCLED RESIN MANUFACTURING METHOD” (MITSUBISHI GAS CHEMICAL COMPANY, INC., priority 2021, published 2024)

What was measured:
[1] = Solubility in toluene at 25° C.; assay type: physicochemical; conditions: solvent toluene
[2] = Solubility in methyl ethyl ketone (MEK) at 25° C.; assay type: physicochemical; conditions: solvent MEK

Row | Structure (SMILES) | solubility in toluene at 25° C. [1] | solubility in methyl ethyl ketone (MEK) at 25° C. [2]
1 | OCCOc1ccc2cc(-c3ccccc3)ccc2c1-c1c(OCCO)ccc2cc(-c3ccccc3)ccc12 [DP, 2,2′-bis(2-hydroxyethoxy)-6,6′-diphenyl-1,1′-binaphthalene] | 0.3 g/(10 mL) | 0.3 g/(10 mL)
2 | OCCOc1ccc(C2(c3ccc(OCCO)c(-c4ccccc4)c3)c3ccccc3-c3ccccc32)cc1-c1ccccc1 [BPPEF, 9,9-bis[4-(2-hydroxyethoxy)-3-phenylphenyl]fluorene] | 0.05 g/(10 mL) | 4.5 g/(10 mL)
3 | OCCOc1ccc2ccccc2c1-c1c(OCCO)ccc2ccccc12 [BNE, 2,2′-bis(2-hydroxyethoxy)-1,1′-binaphthalene] | 0.1 g/(10 mL) | 0.75 g/(10 mL)
